These results are taken from patent publication US10975037B2 (priority 2018, dated 2021).

Assay [1] addresses human RORγt ligand binding domain (RORγt LBD) (Homo sapiens (Human), UniProt P51449). As to the kind of experiment: RORγt ThermoFluor® assay (thermal shift binding). The essentials:
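Thermal shift with 0.065 mg/mL RORγt LBD and 60 μM 1,8-ANS in 100 mM Hepes pH 7.0, 10 mM NaCl, 2.5 mM GSH, 0.002% Tween-20.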
Background: DSF heats the sample and reads unfolding from a dye or from intrinsic fluorescence.

For another assay, the target named is full-length human RORγt (Homo sapiens (Human), UniProt P51449). As to the kind of experiment: RORγt (full-length human) reporter assay, conditions A or B, HEK293T cells. The class given is cell-based. Conditions: for inhibition at 6 µM: read-out: RORγt (FL) Reporter Assay A or B, % inhibition @ 6 μM, 6 μM compound concentration; for inhibition at 0.67 µM: 0.67 μM compound concentration (footnote ****). The essentials:
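Dual-luciferase read-out was taken after an overnight (16–20 h) compound exposure. Firefly data were scaled between DMSO-only and saturating reference compound, Renilla-normalized, then plotted against concentration for IC50.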
A general note: Reporter assays use an easily measured gene product as a stand-in for the process of interest.

The subject of assay [2] is IL-17 production by CD4 T cells under conditions which favor Th17 differentiation. As to the kind of experiment: Human Th17 assay (IL-17 production by CD4 T cells). The assay is classed as cell-based. The settings on record: read-out: Human Th17 Assay, IC50. As for the experimental part:
The human Th17 assay tests the effect of RORγt modulatory compounds on IL-17 production by CD4 T cells under conditions which favor Th17 differentiation. Total CD4^+ T cells were isolated from the peripheral blood mononuclear cells (PBMC) of healthy donors using a CD4^+ T cell isolation kit II, following the manufacturer's instructions (Miltenyi Biotec). […] 50 μL of compound at titrated concentrations in DMSO were added into each well at final DMSO concentration at 0.2%. Cells were incubated for 1 hour, then 50 μL of Th17 cell differentiation medium was added to each well. […] Cells were cultured at 37° C. and 5% CO2 for 3 days. Supernatants were collected and the accumulated IL-17 in culture was measured by using MULTI-SPOT® Cytokine Plate following manufacture's instruction (Meso Scale Discovery). The plate was read using Sector Imager 6000, and IL-17 concentration was extrapolated from the standard curve. The IC50s were determined by GraphPad.

The target in the next assay is RORγT (Mus musculus (Mouse), UniProt P51450). Conditions: mice; cited from earlier work.
Chain of RORγT (P51450 other isoform, or with tags, fused parts or gaps): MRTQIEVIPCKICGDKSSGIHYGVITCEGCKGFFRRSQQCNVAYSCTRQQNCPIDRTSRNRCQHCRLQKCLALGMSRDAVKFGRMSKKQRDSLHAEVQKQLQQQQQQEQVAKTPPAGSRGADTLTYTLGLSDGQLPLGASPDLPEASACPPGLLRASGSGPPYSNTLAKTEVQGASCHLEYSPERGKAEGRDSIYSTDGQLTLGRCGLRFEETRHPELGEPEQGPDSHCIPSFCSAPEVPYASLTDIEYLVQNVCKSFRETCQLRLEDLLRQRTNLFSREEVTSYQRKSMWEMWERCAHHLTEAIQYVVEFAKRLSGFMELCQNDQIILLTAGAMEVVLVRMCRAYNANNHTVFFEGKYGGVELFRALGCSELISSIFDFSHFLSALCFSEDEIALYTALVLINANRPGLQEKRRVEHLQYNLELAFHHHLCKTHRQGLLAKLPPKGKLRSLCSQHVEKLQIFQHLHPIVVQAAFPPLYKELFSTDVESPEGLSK
Setting [3] is: read-out: ThermoFluor® Assay, Kd.
[4] abbreviates: RORγt (FL) Reporter Assay A or B, IC50, HEK293T cells.
[5] abbreviates: HEK-293T, read-out: RORγt (FL) Reporter Assay A or B, % inhibition.

Like-named read-outs stand apart in the source and are kept apart here. Marks after values point to notes of the source that are not given here.

Chain of human RORγt ligand binding domain (RORγt LBD) (P51449 other isoform, or with tags, fused parts or gaps): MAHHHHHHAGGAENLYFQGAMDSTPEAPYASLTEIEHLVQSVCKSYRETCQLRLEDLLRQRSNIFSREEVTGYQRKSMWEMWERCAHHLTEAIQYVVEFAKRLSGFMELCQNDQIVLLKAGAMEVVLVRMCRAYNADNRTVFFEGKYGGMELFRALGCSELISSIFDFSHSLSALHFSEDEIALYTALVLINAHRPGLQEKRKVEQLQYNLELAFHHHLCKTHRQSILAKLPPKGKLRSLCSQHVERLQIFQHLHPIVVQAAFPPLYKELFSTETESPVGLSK
Chain of full-length human RORγt (P51449 other isoform, or with tags, fused parts or gaps): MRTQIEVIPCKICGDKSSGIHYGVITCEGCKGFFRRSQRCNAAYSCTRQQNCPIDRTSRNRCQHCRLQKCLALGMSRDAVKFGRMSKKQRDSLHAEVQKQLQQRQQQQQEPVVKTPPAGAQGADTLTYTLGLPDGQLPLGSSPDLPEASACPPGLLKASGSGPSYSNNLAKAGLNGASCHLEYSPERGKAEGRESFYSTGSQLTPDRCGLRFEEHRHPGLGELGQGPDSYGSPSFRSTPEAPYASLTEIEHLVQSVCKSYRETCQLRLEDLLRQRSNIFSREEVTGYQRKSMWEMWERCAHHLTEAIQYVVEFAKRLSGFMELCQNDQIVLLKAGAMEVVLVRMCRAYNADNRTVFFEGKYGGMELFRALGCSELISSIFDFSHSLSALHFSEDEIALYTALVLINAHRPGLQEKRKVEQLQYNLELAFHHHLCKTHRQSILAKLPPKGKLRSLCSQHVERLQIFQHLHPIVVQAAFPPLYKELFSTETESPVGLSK

Regarding `CCn1nc(C(=O)NC[C@H]2CC[C@H](S(C)(=O)=O)CC2)c(Cl)c1-c1ccc(CC(C)(C)C(F)(F)F)cc1Cl` [Example 165, 4-Chloro-5-(2-chloro-4-(3,3,3-trifluoro-2,2-dimethylpropyl)phenyl)-1-ethyl-N-(((1r,4r)-4-(methylsulfonyl)cyclohexyl)methyl)-1H-pyrazole-3-carboxamide], in assay [1] (setting [3]), the Kd (commonly the free concentration of one partner at which half of the binding sites on the other are occupied at equilibrium, for simple one-to-one binding) turned out to be 0.45 nM. In addition, at full-length human RORγt (HEK-293T, 0.07 μM compound concentration (footnote *********), read-out: RORγt (FL) Reporter Assay A or B, % inhibition), the inhibition – broadly, the drop in the measured response relative to a control, in per cent – at 0.07 µM was 52%. The IC50 (as a rule, the midpoint of a concentration-inhibition curve) came to 8 nM on full-length human RORγt (setting [4]) and 13 nM in assay [2] (Homo sapiens, CD4+ T).
As to `COCCn1nc(C(=O)NC[C@H]2CC[C@H](S(C)(=O)=O)CC2)c(Cl)c1-c1ccc(N[C@H](C)C(F)(F)F)cc1OC` [Example 187, 4-Chloro-5-(2-methoxy-4-(((R)-1,1,1-trifluoropropan-2-yl)amino)phenyl)-1-(2-methoxyethyl)-N-(((1r,4R)-4-(methylsulfonyl)cyclohexyl)methyl)-1H-pyrazole-3-carboxamide], the Kd in assay [1] (ThermoFluor® Assay, Kd) came out at 18 nM. The inhibition at 6 µM at full-length human RORγt (HEK-293T) stood at 104%. For the same compound, the IC50 at full-length human RORγt (setting [4]) amounted to 110 nM; in assay [2] (Homo sapiens, CD4+ T), 54 nM.
Consider `CCn1nc(C(=O)NC[C@]2(O)CC[C@@H](S(C)(=O)=O)CC2)c(Cl)c1-c1ccc(CC(C)C(F)(F)F)cc1OC(F)(F)F` (some centres unmarked) [Example 191, 4-Chloro-1-ethyl-N-(((1s,4s)-1-hydroxy-4-(methylsulfonyl)cyclohexyl)methyl)-5-(4-(3,3,3-trifluoro-2-methylpropyl)-2-(trifluoromethoxy)phenyl)-1H-pyrazole-3-carboxamide], for which the Kd in assay [1] (setting [3]) was 1.5 nM. Further, the inhibition at 0.67 µM at full-length human RORγt (setting [5]) was 69%. The IC50 at full-length human RORγt (setting [4]) came to 22 nM; in assay [2] (Homo sapiens, CD4+ T), 63 nM.
Regarding `COc1cc(N[C@H](C)C(F)(F)F)ccc1-c1c(Cl)c(C(=O)NC[C@H]2CC[C@H](S(C)(=O)=O)CC2)nn1CCO` [Example 201, 4-Chloro-1-(2-hydroxyethyl)-5-(2-methoxy-4-(((R)-1,1,1-trifluoropropan-2-yl)amino)phenyl)-N-(((r,4R)-4-(methylsulfonyl)cyclohexyl)methyl)-1H-pyrazole-3-carboxamide], the Kd in assay [1] (setting [3]) came to 200 nM. In addition, at full-length human RORγt (HEK-293T), the inhibition at 6 µM came to 82%. Further, the IC50 at full-length human RORγt (setting [4]) was found to be 1600 nM; in assay [2] (Homo sapiens, CD4+ T) it was 2800 nM.
For `CCn1nc(C(=O)NC[C@H]2CC[C@H](S(C)(=O)=O)CC2)c(F)c1-c1ccc(N[C@H](C)C(F)(F)F)cc1OC` [Example 203, 1-Ethyl-4-fluoro-5-(2-methoxy-4-(((R)-1,1,1-trifluoropropan-2-yl)amino)phenyl)-N-(((1r,4R)-4-(methylsulfonyl)cyclohexyl)methyl)-1H-pyrazole-3-carboxamide] the same measures were 17 nM, 105%, 130 nM and 39 nM.
Regarding `CCn1nc(C(=O)NC[C@H]2CC[C@H](S(C)(=O)=O)CC2)c(Cl)c1-c1ccc(CCC(F)(F)F)cc1OC(F)F` [Example 222, 4-Chloro-5-(2-(difluoromethoxy)-4-(3,3,3-trifluoropropyl)phenyl)-1-ethyl-N-(((1r,4r)-4-(methylsulfonyl)cyclohexyl)methyl)-1H-pyrazole-3-carboxamide], in assay [1] (setting [3]), the Kd was determined as 0.75 nM. For the same compound, on full-length human RORγt (3 μM compound concentration (footnote *)), the “RORγt (FL) Reporter Assay A or B, % inhibition” value was 101* %. Further, the IC50 at full-length human RORγt (HEK293T cells, read-out: RORγt (FL) Reporter Assay A or B, IC50) stood at 6.2 nM; in assay [2], 11 nM.
As to `CCn1nc(C(=O)NC[C@H]2CC[C@H](S(C)(=O)=O)CC2)c(C)c1-c1ccc(CC(C)(C)C(F)(F)F)cc1OC` [Example 227, 1-Ethyl-5-(2-methoxy-4-(3,3,3-trifluoro-2,2-dimethylpropyl)phenyl)-4-methyl-N-(((1r,4r)-4-(methylsulfonyl)cyclohexyl)methyl)-1H-pyrazole-3-carboxamide], the Kd in assay [1] (setting [3]) stood at 1.1 nM. For the same compound, the inhibition at 0.67 µM on full-length human RORγt (setting [5]) was found to be 92%. The IC50 at full-length human RORγt (setting [4]) came to 9 nM; in assay [2] (Homo sapiens, CD4+ T) it was 14 nM.
For the compound `CC(=O)Nc1nc(C)c(S(=O)(=O)Nc2ccc(C(O)(C(F)(F)F)C(F)(F)F)cc2)s1` [SR1001], at RORγT, the Th17-dependent learned helplessness entry was “reduced Th17-dependent learned helplessness”.
